Test results: US20090149540A1, “Compositions and Methods for Attenuating Mitochondria-Mediated Cell Injury” (priority 2005, published 2009)

Legend:
[1] = radioactive tracer studies in whole animals; cited from earlier work
[2] = tested on: entire mitochondrial protein extract; assay: Biotin-switch analysis of mitochondrial protein S-nitrosation; type: biochemical, rat; conditions: for S-nitrosation of mitochondrial protein, comparison of NO* donors: entire mitochondrial protein extract
Procedure: (§1) Rat heart mitochondria were isolated using differential centrifugation (Tompkins, et al. (2005) Biochim. Biophys. Acta PMID: 16278076). Protein was determined by the Folin-phenol method (Lowry, et al. (1951) J. Bio. Chem. 193:265-75) against a standard curve constructed using bovine serum albumin. Mitochondrial incubations and all subsequent steps were performed in the dark. One mg of mitochondrial protein was suspended in 1 mL of mitochondrial respiration buffer (Tompkins, et al. (2005) supra) containing respiratory substrates glutamate (5 mM), malate (2.5 mM) and succinate (5 mM). […] Samples were centrifuged (5 minutes, 14,000×g), and supernatants removed. The pellets were then resuspended in 1 mL of respiration buffer, and centrifuged again. Pellets were frozen in liquid N2 for subsequent analysis. For ONOO^− treatments, 4 μL of 25 mM ONOO^− stock (100 μM final concentration) was added the cap of the reaction tube, the cap quickly closed and the tube shaken immediately. The process was then repeated twice at 30 second intervals, for a total of 3 additions. Mitochondria were then pelleted, washed, and frozen as for S-nitrosoglutathione samples. Complex I activity was assayed as the rotenone-sensitive oxidation of NADH, at 340 nm in the presence of coenzyme Q1 (Borutaite, et al. (2000) supra). Complex IV was assayed by monitoring the cyanide-sensitive first-order oxidation of reduced cytochrome c, at 550 nm according to established methods (Cleeter, et al. (1994) supra).
For biotin-switch analysis, intact mitochondrial pellets (1 mg protein solubilized in extraction buffer) or chromatography column fractions were analyzed in accordance with known methods (Jaffrey & Snyder (2001) supra). Samples were separated in duplicate on non-reducing SDS-PAGE gels; half the gel was stained with COOMASSIE® blue, and the other half blotted and probed with streptavidin-HRP and ECL™ detection (GE biosciences) Blots and stained gels were aligned, and S-nitrosated proteins excised, trypsinized, and identified by peptide mass fingerprinting. Mass spectra (MALDI-TOF) were analyzed using the MASCOT™ algorithm available on the world-wide web at matrixscience.com.

[3] = tested on: isolated adult rat cardiomyocytes; assay: Cardiomyocyte model of ischemia-reperfusion injury, cell viability by Trypan blue exclusion; type: cell-based; conditions: 10 μM or 20 μM; 1 hour ischemia, 30 minutes reoxygenation
Procedure: Isolated adult rat cardiomyocytes were subjected to 1 hour ischemia (anoxic, glucose free medium, pH 6.5) followed by 30 minutes reoxygenation (labeled “HR”). Cell viability was assayed by Trypan blue exclusion. […] All data are means±SEM, N>3.
Adult rat cardiomyocytes were prepared by collagenase perfusion according to standard methods (Dai, et al. (2001) supra), yielding ˜4×10^6 cells per heart, >80% rod-shaped and viable. Incubations were in a shaking water bath at 37° C., each utilizing 5×10^5 cells in 5 mL of the KH buffers described below. For the control, cells were incubated for 2 hours in oxygenated KH buffer (95/5 O2/CO2). For ischemia-reperfusion treatment, cells were subjected to 30 minutes in oxygenated KH buffer, 1 hour in “ischemic” KH buffer (95/5 N2/CO2, pH 6.5, no glucose), and 30 minutes in oxygenated KH buffer. For the ischemia-reperfusion injury and test compound group of cells, ischemia-reperfusion injury was carried out as described above with test compound present during the 30 minute equilibration prior to ischemia-reperfusion and absent during ischemia. […] At the end of each protocol, cell viability was assayed (Trypan blue), and mitochondrial function determined (measurement of ΔΨm with the fluorescent probe TMRE, respiration with an O2 electrode, and S-nitrosothiol content by chemiluminescence and biotin-switch.

mitochondrial complex I = molecular target: T1, mitochondrial complex I (Rattus norvegicus, UniProt Q66HF1); assay: Complex I activity (rotenone-sensitive NADH/Co-Q1 oxidation/reduction) in treated mitochondria; type: biochemical; conditions: S-nitrosoglutathione treatment of mitochondria; exposure to light
T1 construct: Rat heart mitochondria were isolated using differential centrifugation; from tissue; host or cells: rat heart mitochondria (male Sprague-Dawley rats)
T1 sequence (Q66HF1 24-727, one chain of several): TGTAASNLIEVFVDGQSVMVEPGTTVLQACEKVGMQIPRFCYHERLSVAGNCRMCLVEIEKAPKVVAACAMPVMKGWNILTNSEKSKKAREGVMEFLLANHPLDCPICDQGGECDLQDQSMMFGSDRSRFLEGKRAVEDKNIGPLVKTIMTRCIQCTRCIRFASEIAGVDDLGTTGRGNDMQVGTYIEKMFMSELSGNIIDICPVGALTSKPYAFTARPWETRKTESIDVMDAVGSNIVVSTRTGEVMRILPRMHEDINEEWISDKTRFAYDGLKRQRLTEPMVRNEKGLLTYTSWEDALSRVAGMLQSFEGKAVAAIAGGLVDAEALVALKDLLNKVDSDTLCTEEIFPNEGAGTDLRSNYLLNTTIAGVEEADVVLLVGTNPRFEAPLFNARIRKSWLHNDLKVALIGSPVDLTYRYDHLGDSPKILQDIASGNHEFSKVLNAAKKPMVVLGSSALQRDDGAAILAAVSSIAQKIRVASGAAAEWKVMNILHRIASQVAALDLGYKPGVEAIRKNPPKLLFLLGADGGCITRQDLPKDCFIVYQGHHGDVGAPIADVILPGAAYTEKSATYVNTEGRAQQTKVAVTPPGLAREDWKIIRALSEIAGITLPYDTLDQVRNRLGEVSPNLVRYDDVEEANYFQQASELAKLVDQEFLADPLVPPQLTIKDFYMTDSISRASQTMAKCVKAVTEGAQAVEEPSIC
Description: Assuming heart mitochondria contain ˜50 pmol complex I per mg protein (Schagger & Pfeiffer (2001) J. Biol. Chem. 276:37861-37867), it was observed that S-nitrosation plateaud at a ˜7:1 mol/mol ratio (i.e., 7 mols S-nitrosothiol per mol complex I), while maximum complex I inhibition was ˜20-25%. This apparent mis-match between the stoichiometry of S-nitrosation (7:1) and the degree of inhibition (25%) may reflect S-nitrosation of complex I on multiple subunits. Alternatively, since the spectrophotometric complex I activity assay was performed at 340 nm, close to the absorption maxima of S-nitrosothiols (335 nm), S-nitrosothiols within complex I may have been destroyed during the assay, leading to underestimation of inhibition by S-nitrosation.
Rat heart mitochondria were isolated using differential centrifugation (Tompkins, et al. (2005) Biochim. Biophys. Acta PMID: 16278076). Protein was determined by the Folin-phenol method (Lowry, et al. (1951) J. Bio. Chem. 193:265-75) against a standard curve constructed using bovine serum albumin. Mitochondrial incubations and all subsequent steps were performed in the dark. One mg of mitochondrial protein was suspended in 1 mL of mitochondrial respiration buffer (Tompkins, et al. (2005) supra) containing respiratory substrates glutamate (5 mM), malate (2.5 mM) and succinate (5 mM). […]

isolated mitochondria = assay: Chemiluminescent NO analysis of total S-nitrosothiol in isolated mitochondria; type: biochemical, rat
Procedure: At concentrations above 250 μM, secondary reactions such as free S-nitrosothiol or NO2^− formation were observed.
as §1
Chemiluminescent analysis of S-nitrosothiol content was performed on samples originating from blue-native gels, intact mitochondria and SUPEROSE™ 6 chromatography fractions, according to known methodologies (Yang, et al. (2003) Free Radic. Res. 37:1-10). […] Each sample was run in duplicate and quantified using a standard curve created with known concentrations of NaNO2.

For `CC(S)C(=O)NCC(=O)O` (stereo not drawn) [2-Mercaptopropionylglycine], the “cell entry and mitochondrial accumulation” value [1] is listed as “readily enters cells and accumulates in mitochondria”.

In the case of `NCCN(CCN)/[N+]([O-])=N/O` [DETA-NONOate], the “S-nitrosation of mitochondrial protein, comparison of NO* donors” value (shortened to “S-nitrosation … of NO* donors”) [2] is reported as “S-nitrosoglutathione resulted in far more S-nitrosation than DETA-NONOate”.

With `O=NOO` [ONOO^−, peroxynitrite] the “S-nitrosation … of NO* donors” value [2] was “S-nitrosoglutathione resulted in far more S-nitrosation than DETA-NONOate or ONOO^−”.

With `CC(SN=O)C(=O)NCC(=O)O` (stereo not drawn) [S-nitroso-2-mercaptopropylglycine] the “S-nitrosation of mitochondrial proteins compared with S-nitrosoglutathione” value ([2]; same concentrations, 10-100 μM) was “much greater degree of S-nitrosation of mitochondrial proteins than did S-nitrosoglutathione” and the “protection of cardiomyocyte viability from ischemia-reperfusion injury” value [3] was “significant protection of cardiomyocytes from ischemia-reperfusion injury”.

In the case of `N[C@@H](CCC(=O)N[C@@H](CSN=O)C(=O)NCC(=O)O)C(=O)O` [S-nitrosoglutathione], the “complex I inhibition and its reversibility” value (mitochondrial complex I) is reported as “complex I inhibition that was reversible by exposure of mitochondria to light”, the “concentration at which formation of protein bound S-nitrosothiol saturates” value ([2]; biotin-switch and chemiluminescent data together) is reported as ~250 µM and the “concentration at which plateau of mitochondrial protein S-nitrosation is reached” value ([2]; dose response over the range 50-250 μM) is reported as ~200 µM. The “S-nitrosation … of NO* donors” value [2] was “far more S-nitrosation than DETA-NONOate or ONOO^−”, the “concentration at which total S-nitrosothiol (free plus protein-bound) approaches saturation” value (isolated mitochondria; 10 μM to 1 mM) was ~300 µM and the total S-nitrosothiol (isolated mitochondria; 100 μM treatment) was ~1700 pmol/mg mitochondrial protein. For the same molecule, the “concentrations at which secondary reactions such as free S-nitrosothiol or NO2− formation were observed” value (isolated mitochondria; isolated mitochondria) was “above 250 μM”.
